Format in all cases: cell-based
In one assay the target is T1, human TLR7 (Homo sapiens, UniProt Q9NYK1).
T1 construct: host or cells: HEK-Blue cells (HEK293-derived reporter line)
T1 sequence (Q9NYK1 27-1049): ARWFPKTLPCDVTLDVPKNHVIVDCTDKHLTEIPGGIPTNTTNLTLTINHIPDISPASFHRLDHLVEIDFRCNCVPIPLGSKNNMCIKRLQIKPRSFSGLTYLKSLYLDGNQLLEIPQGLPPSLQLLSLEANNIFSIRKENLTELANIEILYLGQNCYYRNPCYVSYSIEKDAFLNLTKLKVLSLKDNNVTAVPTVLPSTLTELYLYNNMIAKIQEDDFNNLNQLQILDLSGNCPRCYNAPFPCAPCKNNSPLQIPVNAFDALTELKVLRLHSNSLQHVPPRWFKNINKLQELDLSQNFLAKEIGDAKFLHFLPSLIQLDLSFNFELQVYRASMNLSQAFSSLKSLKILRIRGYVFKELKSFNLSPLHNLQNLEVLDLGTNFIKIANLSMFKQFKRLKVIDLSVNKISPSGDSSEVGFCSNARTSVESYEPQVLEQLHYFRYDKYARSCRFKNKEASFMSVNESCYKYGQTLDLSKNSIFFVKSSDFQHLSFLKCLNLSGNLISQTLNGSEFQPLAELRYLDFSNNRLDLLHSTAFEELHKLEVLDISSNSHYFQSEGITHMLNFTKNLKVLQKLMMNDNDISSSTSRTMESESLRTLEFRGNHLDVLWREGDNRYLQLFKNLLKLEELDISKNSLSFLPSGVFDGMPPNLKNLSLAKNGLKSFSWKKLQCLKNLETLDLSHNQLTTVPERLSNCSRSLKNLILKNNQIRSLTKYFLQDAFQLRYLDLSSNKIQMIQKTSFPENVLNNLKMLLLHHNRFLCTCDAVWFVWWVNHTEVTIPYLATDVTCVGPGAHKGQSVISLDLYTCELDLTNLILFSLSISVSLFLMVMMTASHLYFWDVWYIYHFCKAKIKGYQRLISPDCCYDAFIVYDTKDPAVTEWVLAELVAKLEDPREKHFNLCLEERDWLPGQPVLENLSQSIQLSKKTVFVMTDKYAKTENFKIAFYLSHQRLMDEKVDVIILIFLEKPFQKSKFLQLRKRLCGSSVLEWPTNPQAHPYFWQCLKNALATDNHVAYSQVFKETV
Put plainly: TLR7 inhibition reporter assay (HEK-Blue cells, SEAP reporter, gardiquimod stimulation). Conditions: HEK-Blue cells overexpressing human TLR7, SEAP reporter, gardiquimod 7.5 μM. The method, boiled down: (§1)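 HEK-Blue cells overexpressing human TLR7, TLR8 or TLR9 (NF-κB/AP-1-driven SEAP) pre-treated 30 min at room temperature with compound (0.05 nM–50 μM), then stimulated with gardiquimod 7.5 μM (TLR7), R848 15.9 μM (TLR8) or ODN2006 5 nM (TLR9). SEAP read colorimetrically after 22 h at 37 °C; % inhibition calculated.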
For orientation: In a reporter assay the amount or activity of a reporter protein is the signal.

The target of another assay is T2, human TLR8 (Homo sapiens, UniProt Q9NR97).
T2 construct: host or cells: HEK-Blue cells (HEK293-derived reporter line)
T2 sequence (Q9NR97 27-1041): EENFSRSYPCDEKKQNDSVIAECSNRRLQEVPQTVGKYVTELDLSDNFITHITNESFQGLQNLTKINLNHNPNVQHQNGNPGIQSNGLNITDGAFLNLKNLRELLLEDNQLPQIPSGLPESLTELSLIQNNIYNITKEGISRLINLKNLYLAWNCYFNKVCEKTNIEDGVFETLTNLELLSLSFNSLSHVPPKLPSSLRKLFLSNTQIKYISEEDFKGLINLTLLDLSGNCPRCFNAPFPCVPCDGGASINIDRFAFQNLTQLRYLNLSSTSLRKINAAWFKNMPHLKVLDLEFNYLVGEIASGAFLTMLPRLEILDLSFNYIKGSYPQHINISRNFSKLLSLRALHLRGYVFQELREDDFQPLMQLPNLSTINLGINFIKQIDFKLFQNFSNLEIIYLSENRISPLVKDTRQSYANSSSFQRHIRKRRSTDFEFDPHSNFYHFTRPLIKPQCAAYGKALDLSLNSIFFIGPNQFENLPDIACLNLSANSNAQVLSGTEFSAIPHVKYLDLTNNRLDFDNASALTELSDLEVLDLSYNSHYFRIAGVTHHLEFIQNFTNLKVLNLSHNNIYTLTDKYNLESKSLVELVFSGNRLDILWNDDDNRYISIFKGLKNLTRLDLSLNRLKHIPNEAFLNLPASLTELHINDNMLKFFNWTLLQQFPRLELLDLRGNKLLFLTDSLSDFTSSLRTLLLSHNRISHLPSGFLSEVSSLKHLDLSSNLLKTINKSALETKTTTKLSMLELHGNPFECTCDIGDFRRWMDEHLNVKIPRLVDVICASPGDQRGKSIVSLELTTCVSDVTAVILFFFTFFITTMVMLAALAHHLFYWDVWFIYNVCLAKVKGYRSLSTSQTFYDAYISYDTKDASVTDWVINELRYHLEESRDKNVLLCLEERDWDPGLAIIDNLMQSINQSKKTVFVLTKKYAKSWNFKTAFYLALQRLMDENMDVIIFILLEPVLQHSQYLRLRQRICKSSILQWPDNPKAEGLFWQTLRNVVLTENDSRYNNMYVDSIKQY
Put plainly: TLR8 inhibition reporter assay (HEK-Blue cells, SEAP reporter, R848 stimulation). Conditions: HEK-Blue cells overexpressing human TLR8, SEAP reporter, R848 15.9 μM. The method, boiled down:
as §1

Another assay addresses T3, human TLR9 (Homo sapiens, UniProt Q9NR96).
T3 construct: host or cells: HEK-Blue cells (HEK293-derived reporter line)
T3 sequence (Q9NR96 26-1032): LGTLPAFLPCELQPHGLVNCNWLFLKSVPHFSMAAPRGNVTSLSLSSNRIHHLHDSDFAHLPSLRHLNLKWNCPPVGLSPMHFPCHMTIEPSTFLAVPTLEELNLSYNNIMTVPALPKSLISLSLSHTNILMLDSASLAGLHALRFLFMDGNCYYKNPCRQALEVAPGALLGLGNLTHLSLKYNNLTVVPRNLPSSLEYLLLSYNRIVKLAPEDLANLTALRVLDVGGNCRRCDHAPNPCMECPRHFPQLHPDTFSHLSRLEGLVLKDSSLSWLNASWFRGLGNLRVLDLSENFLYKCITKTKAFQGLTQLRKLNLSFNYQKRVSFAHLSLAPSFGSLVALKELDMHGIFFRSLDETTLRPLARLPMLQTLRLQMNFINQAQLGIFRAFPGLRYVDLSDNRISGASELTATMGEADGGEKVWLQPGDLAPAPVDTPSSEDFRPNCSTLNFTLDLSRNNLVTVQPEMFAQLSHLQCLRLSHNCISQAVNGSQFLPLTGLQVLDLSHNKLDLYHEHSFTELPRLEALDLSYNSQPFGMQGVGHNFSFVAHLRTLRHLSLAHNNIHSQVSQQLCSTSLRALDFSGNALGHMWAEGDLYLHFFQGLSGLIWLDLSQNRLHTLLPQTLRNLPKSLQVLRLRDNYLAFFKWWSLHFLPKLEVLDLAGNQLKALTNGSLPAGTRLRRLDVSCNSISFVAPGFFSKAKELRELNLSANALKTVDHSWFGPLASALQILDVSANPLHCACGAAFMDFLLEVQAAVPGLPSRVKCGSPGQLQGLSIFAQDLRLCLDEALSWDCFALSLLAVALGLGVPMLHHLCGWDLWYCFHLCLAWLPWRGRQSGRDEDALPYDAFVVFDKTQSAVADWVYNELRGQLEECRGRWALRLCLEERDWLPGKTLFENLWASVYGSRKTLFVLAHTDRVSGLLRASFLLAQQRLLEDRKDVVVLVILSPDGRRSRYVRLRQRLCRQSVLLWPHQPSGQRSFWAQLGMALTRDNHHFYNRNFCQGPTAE
The assay is described as follows: TLR9 inhibition reporter assay (HEK-Blue cells, SEAP reporter, ODN2006 stimulation). Conditions: HEK-Blue cells overexpressing human TLR9, SEAP reporter, ODN2006 5 nM. The method, boiled down:
as §1

As a reminder, the IC50 is the concentration at which inhibition is half-maximal. As for `CCc1c(-c2cccc3[nH]ncc23)[nH]c2ccc(C3CCN(CC(=O)NC)CC3)cc12` [Example 388, 2-(4-(3-ethyl-2-(1H-indazol-4-yl)-1H-indol-5-yl)piperidin-1-yl)-N-methylacetamide], the values for the IC50 against human TLR7, at human TLR8 and at human TLR9 were 1000 to 50000 nM, 1000 to 50000 nM and above 50000 nM, respectively.
As to `CCc1c(-c2ccnc3[nH]ncc23)[nH]c2ccc(C3CCNCC3F)cc12` (stereo not drawn) [Example 173, 4-(3-ethyl-5-(3-fluoropiperidin-4-yl)-1H-indol-2-yl)-1H-pyrazolo[3,4-b]pyridine], the figures for the IC50 on human TLR7, on human TLR8 and at human TLR9 were 100 to 1000 nM, below 100 nM and 1000 to 50000 nM, respectively.
Taken in the same sequence, the figures for `CCc1c(-c2cnc3cn[nH]c3c2)[nH]c2ccc(C3CCNCC3)cc12` [Example 62, 6-(3-ethyl-5-(piperidin-4-yl)-1H-indol-2-yl)-1H-pyrazolo[4,3-b]pyridine] were 100 to 1000 nM, 100 to 1000 nM and 100 to 1000 nM.
For `Cc1c(-c2ccnc3[nH]cc(O)c23)[nH]c2ccc(C3CCNCC3)cc12` [Example 212, 4-(3-methyl-5-(piperidin-4-yl)-1H-indol-2-yl)-1H-pyrrolo[2,3-b]pyridin-3-ol] the same measures were 1000 to 50000 nM, 1000 to 50000 nM and 1000 to 50000 nM.
Turning to `CCc1ncc(CN2CCC(c3ccc4[nH]c(-c5ccnc6[nH]ncc56)c(CC)c4c3)CC2)[nH]1` [Example 915, 4-(3-ethyl-5-(1-((2-ethyl-1H-imidazol-5-yl)methyl)piperidin-4-yl)-1H-indol-2-yl)-1H-pyrazolo[3,4-b]pyridine], the values for the IC50 at human TLR7, at human TLR8 and at human TLR9 were 100 to 1000 nM, below 100 nM and 100 to 1000 nM, respectively.
Regarding `Cc1c(-c2ncc3cc[nH]c3n2)[nH]c2ccc(C3CCN(C4CCN(C(C)C)CC4)CC3)cc12` [Example 809, 2-(5-(1′-isopropyl-[1,4′-bipiperidin]-4-yl)-3-methyl-1H-indol-2-yl)-7H-pyrrolo[2,3-d]pyrimidine], the half-maximal inhibitory concentration (IC50) against human TLR7 lay within 1000 to 50000 nM; on human TLR8 it was 1000 to 50000 nM; at human TLR9, 100 to 1000 nM.
Take `Cc1cc2cc(-c3[nH]c4ccc(C5CCN(CC(=O)N(C)C)CC5)cc4c3C(C)C)cc(C)n2n1` [Example 420, 2-(4-(2-(2,7-dimethylpyrazolo[1,5-a]pyridin-5-yl)-3-isopropyl-1H-indol-5-yl)piperidin-1-yl)-N,N-dimethylacetamide]: the results for the half-inhibitory concentration (IC50) at human TLR7, on human TLR8 and against human TLR9 were below 100 nM, below 100 nM and 1000 to 50000 nM, respectively.
`CC(C)c1c(-c2ccnc3c2ccn3S(C)(=O)=O)[nH]c2ccc(C3CCNCC3)cc12` [Example 3, 4-(3-isopropyl-5-(piperidin-4-yl)-1h-indol-2-yl)-1-(methylsulfonyl)-1H-pyrrolo[2,3-b]pyridine]: the half-maximal inhibitory concentration (IC50) is 100 to 1000 nM against human TLR7, below 100 nM against human TLR8 and 100 to 1000 nM on human TLR9.
`CC(C)c1c(-c2ccnc3[nH]ncc23)[nH]c2ccc(C3CCN(C4CCNCC4F)CC3)cc12` (stereo not drawn) [Example 827, 4-(5-(3′-fluoro-[1,4′-bipiperidin]-4-yl)-3-isopropyl-1H-indol-2-yl)-1H-pyrazolo[3,4-b]pyridine]: the figures for the IC50 against human TLR7, on human TLR8 and on human TLR9 were below 100 nM, below 100 nM and 100 to 1000 nM, respectively.
For `Cc1c(-c2[nH]c3ccc(C4CCN(CC(C)(C)O)CC4)cc3c2C(C)C)cn2ccnc2c1Cl` [Example 772, 1-(4-(2-(8-chloro-7-methylimidazo[1,2-a]pyridin-6-yl)-3-isopropyl-1H-indol-5-yl)piperidin-1-yl)-2-methylpropan-2-ol], the values for the IC50 on human TLR7, against human TLR8 and at human TLR9 were below 100 nM, below 100 nM and 1000 to 50000 nM, respectively.
In the case of `CCc1c(-c2cnc3[nH]ncc3c2)[nH]c2ccc(C3CCNCC3)cc12` [Example 53, 5-(3-ethyl-5-(piperidin-4-yl)-1H-indol-2-yl)-1H-pyrazolo[3,4-b]pyridine], the IC50 was 100 to 1000 nM against human TLR7, below 100 nM against human TLR8 and 1000 to 50000 nM against human TLR9.
Taken in the same sequence, the figures for `CCc1c(-c2ccnc3[nH]ncc23)[nH]c2ccc(C3CCN(Cc4cocn4)CC3)cc12` [Example 920, 4-((4-(3-ethyl-2-(1H-pyrazolo[3,4-b]pyridin-4-yl)-1H-indol-5-yl)piperidin-1-yl)methyl)oxazole] were 100 to 1000 nM, below 100 nM and 1000 to 50000 nM.
As for `Cc1nc2cc(-c3[nH]c4ccc(C5CCN(CC(C)(C)O)CC5)cc4c3C(C)C)ccn2n1` [Example 753, 1-(4-(3-isopropyl-2-(2-methyl-[1,2,4]triazolo[1,5-a]pyridin-7-yl)-1H-indol-5-yl)piperidin-1-yl)-2-methylpropan-2-ol], the IC50 against human TLR7 was below 100 nM; on human TLR8 it was 100 to 1000 nM; on human TLR9 it was 100 to 1000 nM.

The values are drawn from patent publication US11739098B2 (BRISTOL-MYERS SQUIBB COMPANY, priority 2017, dated 2023).
